Read-outs that look alike come from different tables or passages of the source.
Legend:
[1] = test system: HCT116 (human colorectal carcinoma) cells; details: cited from earlier work; for IC50: previously reported (footnote a, Barker et al. 2013) or background art table; for less potent than vinblastine: cell growth inhibition, background art (Leggans 2012; Barker 2012)
[2] = test system: HCT116/VM46 (a vinblastine-resistant strain of HCT116) cells; details: previously reported (footnote a, Barker et al. 2013) or background art table; cited from earlier work
[3] = test system: L1210 (mouse lymphocytic leukemia) cells; assay: Cell growth inhibition assay, L1210; type: cell-based; details: 72 hours incubation, phosphatase assay
Experimental: (§1) Compounds were tested for their cell growth inhibition of L1210 (ATCC no. CCL-219, mouse lymphocytic leukemia) cells, HCT116 (ATCC no. CCL-247, human colorectal carcinoma) cells, and HCT116/VM46 (a vinblastine-resistant strain of HCT116) cells in culture. A population of cells (>1×10^6 cells/mL as determined with a hemocytometer) was diluted with an appropriate amount of Dulbecco's Modified Eagle Medium (DMEM, Gibco) containing 10% fetal bovine serum (FBS, Gibco) to a final concentration of 30000 cells/mL.
(§2) To each well of a 96-well plate (Corning Costar), 100 μL of the cell media solution was added with a multichannel pipet. The cultures were incubated at 37° C. in an atmosphere of 5% CO2 and 95% humidified air for 24 hours. The test compounds were added to the plate as follows: test substances were diluted in DMSO to a concentration of 1 mM and 10-fold serial dilutions were performed on a separate 96-well plate. Fresh culture medium (100 μL) was added to each well of cells to constitute 200 μL of medium per well followed by 2 μL of each test agent. Compounds were tested in duplicate (n=2-18 times) at six concentrations between 0-1000 nM or 0-10000 nM. Following addition, cultures were incubated for an additional 72 hours.
(§3) A phosphatase assay was used to establish the IC50 values as follows: the media in each cell was removed and 100 μL of phosphatase solution (100 mg phosphatase substrate in 30 mL of 0.1 M NaOAc, pH 5.5, 0.1% Triton X-100 buffer) was added to each well. The plates were incubated at 37° C. for either 5 minutes (L1210) or 15 minutes (HCT116 and HCT116/VM46). After the given incubation time, 50 μL of 0.1 N NaOH was added to each well and the absorption at 405 nm was determined using a 96 well plate reader. As the absorption is directly proportional to the number of living cells, the IC50 values were calculated and the reported values represent of the average of 4-36 determinations (SD±10%).

[4] = test system: vinblastine sensitive tumor cell lines (L1210 and HCT116); assay: Cell growth inhibition, vinblastine-sensitive lines stated together; type: cell-based; details: L1210 and HCT116, range over both lines; read-out: IC50's against vinblastine-sensitive tumor cell lines
Experimental: as §1, §2, §3

[5] = test system: HCT116/VM46 (a vinblastine-resistant strain of HCT116) cells; assay: Cell growth inhibition assay, HCT116/VM46; type: cell-based, human; details: 72 hours incubation, phosphatase assay, Pgp-overexpressing resistant line
Experimental: as §1, §2, §3

[6] = test system: HCT116 (human colorectal carcinoma) cells; assay: cells; type: cell-based; details: read-out: IC50, HCT116
Experimental: as §1, §2, §3

[7] = 72 hours incubation, phosphatase assay

SMILES	IC50 [3] [nM]	IC50 [5] [nM]	IC50 [6, 7] [nM]	further results
CC[C@@H]1C[C@H]2CN(CCc3c([nH]c4ccccc34)[C@@](C(=O)OC)(c3cc4c(cc3OC)N(C)[C@H]3[C@@](O)(C(=O)OC)[C@H](OC(C)=O)[C@]5(CC)C=CCN6CC[C@]43[C@@H]65)C2)C1 [Compound 4, reference compound]	–	–	–	IC50 [1]: 60 nM; IC50 [2]: 600 nM
CC[C@]1(N=[N+]=[N-])C[C@H]2CN(CCc3c([nH]c4ccccc34)[C@@](C(=O)OC)(c3cc4c(cc3OC)N(C)[C@H]3[C@@](O)(C(=O)OC)[C@H](OC(C)=O)[C@]5(CC)C=CCN6CC[C@]43[C@@H]65)C2)C1 [Compound 5]	–	–	–	less potent than vinblastine [1]: 100 fold; IC50 [1]: 690 nM; IC50 [2]: 5500 nM
CC[C@]1(N)C[C@H]2CN(CCc3c([nH]c4ccccc34)[C@@](C(=O)OC)(c3cc4c(cc3OC)N(C)[C@H]3[C@@](O)(C(=O)OC)[C@H](OC(C)=O)[C@]5(CC)C=CCN6CC[C@]43[C@@H]65)C2)C1 [Compound 6, 20′-aminovinblastine]	–	–	–	less potent than vinblastine [1]: 100 fold; IC50 [1]: 600 nM; IC50 [2]: > 10000 nM
CC[C@]1(NC(N)=O)C[C@H]2CN(CCc3c([nH]c4ccccc34)[C@@](C(=O)OC)(c3cc4c(cc3OC)N(C)[C@H]3[C@@](O)(C(=O)OC)[C@H](OC(C)=O)[C@]5(CC)C=CCN6CC[C@]43[C@@H]65)C2)C1 [Compound 7, reference compound]	–	–	–	IC50 [1]: 7.5 nM; IC50 [2]: 4400 nM
CC[C@]1(NC(=O)N2Cc3ccc(NC(C)=O)cc3C2)C[C@H]2CN(CCc3c([nH]c4ccccc34)[C@@](C(=O)OC)(c3cc4c(cc3OC)N(C)[C@H]3[C@@](O)(C(=O)OC)[C@H](OC(C)=O)[C@]5(CC)C=CCN6CC[C@]43[C@@H]65)C2)C1 [Compound 40]	0.47	9.4	0.5	IC50 [4]: 0.47 to 0.5 nM
CC[C@]1(NC(=O)N2Cc3ccc(NC(=O)C(C)(C)C)cc3C2)C[C@H]2CN(CCc3c([nH]c4ccccc34)[C@@](C(=O)OC)(c3cc4c(cc3OC)N(C)[C@H]3[C@@](O)(C(=O)OC)[C@H](OC(C)=O)[C@]5(CC)C=CCN6CC[C@]43[C@@H]65)C2)C1 [Compound 44]	0.39	5.3	0.47	–
CCCCCC(=O)Nc1ccc2c(c1)CN(C(=O)N[C@@]1(CC)C[C@H]3CN(CCc4c([nH]c5ccccc45)[C@@](C(=O)OC)(c4cc5c(cc4OC)N(C)[C@H]4[C@@](O)(C(=O)OC)[C@H](OC(C)=O)[C@]6(CC)C=CCN7CC[C@]54[C@@H]76)C3)C1)C2 [Compound 45]	0.44	13	0.62	–
C=CC(=O)Nc1ccc2c(c1)CN(C(=O)N[C@@]1(CC)C[C@H]3CN(CCc4c([nH]c5ccccc45)[C@@](C(=O)OC)(c4cc5c(cc4OC)N(C)[C@H]4[C@@](O)(C(=O)OC)[C@H](OC(C)=O)[C@]6(CC)C=CCN7CC[C@]54[C@@H]76)C3)C1)C2 [Compound 46]	0.38	7.1	0.3	–
CC[C@]1(NC(=O)N2Cc3ccc(NC(=O)C=C(C)C)cc3C2)C[C@H]2CN(CCc3c([nH]c4ccccc34)[C@@](C(=O)OC)(c3cc4c(cc3OC)N(C)[C@H]3[C@@](O)(C(=O)OC)[C@H](OC(C)=O)[C@]5(CC)C=CCN6CC[C@]43[C@@H]65)C2)C1 [Compound 48]	0.43	7.4	0.47	–
CC[C@]1(NC(=O)N2Cc3ccc(NC(=O)c4ccccc4)cc3C2)C[C@H]2CN(CCc3c([nH]c4ccccc34)[C@@](C(=O)OC)(c3cc4c(cc3OC)N(C)[C@H]3[C@@](O)(C(=O)OC)[C@H](OC(C)=O)[C@]5(CC)C=CCN6CC[C@]43[C@@H]65)C2)C1 [Compound 50]	0.54	13	0.62	IC50 [4]: 0.5 to 0.6 nM
CC[C@]1(NC(=O)N2Cc3ccc(NC(=O)c4ccc(-c5ccccc5)cc4)cc3C2)C[C@H]2CN(CCc3c([nH]c4ccccc34)[C@@](C(=O)OC)(c3cc4c(cc3OC)N(C)[C@H]3[C@@](O)(C(=O)OC)[C@H](OC(C)=O)[C@]5(CC)C=CCN6CC[C@]43[C@@H]65)C2)C1 [Compound 51]	5.9	75	6.3	–
CC[C@]1(NC(=O)N2Cc3ccc(NC(=O)c4ccc(OC(F)(F)F)cc4)cc3C2)C[C@H]2CN(CCc3c([nH]c4ccccc34)[C@@](C(=O)OC)(c3cc4c(cc3OC)N(C)[C@H]3[C@@](O)(C(=O)OC)[C@H](OC(C)=O)[C@]5(CC)C=CCN6CC[C@]43[C@@H]65)C2)C1 [Compound 52]	4.3	75	5.3	–
CC[C@]1(NC(=O)N2Cc3ccc(NC(=O)c4ccc(C(C)C)cc4)cc3C2)C[C@H]2CN(CCc3c([nH]c4ccccc34)[C@@](C(=O)OC)(c3cc4c(cc3OC)N(C)[C@H]3[C@@](O)(C(=O)OC)[C@H](OC(C)=O)[C@]5(CC)C=CCN6CC[C@]43[C@@H]65)C2)C1 [Compound 53]	2.9	60	4.2	–
CCC1(NC(=O)N2Cc3cc(OC)c(OC)cc3C2)C[C@H]2CN(CCc3c([nH]c4ccccc34)[C@@](C(=O)OC)(c3cc4c(cc3OC)N(C)[C@H]3C(O)(C(=O)OC)[C@H](OC(C)=O)[C@]5(CC)C=CCN6CC[C@]43[C@@H]65)C2)C1 (stereo partly drawn) [Compound 54]	–	–	–	IC50 ([3]; Mus musculus, L1210): 0.42 nM; IC50 ([5]; Homo sapiens, HCT-116/VM46): 5.2 nM; IC50 ([6]; Homo sapiens, HCT-116, 72 h): 0.45 nM
CC[C@]1(NC(=O)N2Cc3ccc(NC(=O)c4ccccn4)cc3C2)C[C@H]2CN(CCc3c([nH]c4ccccc34)[C@@](C(=O)OC)(c3cc4c(cc3OC)N(C)[C@H]3[C@@](O)(C(=O)OC)[C@H](OC(C)=O)[C@]5(CC)C=CCN6CC[C@]43[C@@H]65)C2)C1 [Compound 55]	0.37	3.6	0.49	–
CC[C@]1(NC(=O)N2Cc3ccc(NC(=O)c4cccnc4)cc3C2)C[C@H]2CN(CCc3c([nH]c4ccccc34)[C@@](C(=O)OC)(c3cc4c(cc3OC)N(C)[C@H]3[C@@](O)(C(=O)OC)[C@H](OC(C)=O)[C@]5(CC)C=CCN6CC[C@]43[C@@H]65)C2)C1 [Compound 56]	0.48	6.6	0.33	–
CC[C@]1(NC(=O)N2Cc3ccc(NC(=O)c4ccncc4)cc3C2)C[C@H]2CN(CCc3c([nH]c4ccccc34)[C@@](C(=O)OC)(c3cc4c(cc3OC)N(C)[C@H]3[C@@](O)(C(=O)OC)[C@H](OC(C)=O)[C@]5(CC)C=CCN6CC[C@]43[C@@H]65)C2)C1 [Compound 57]	0.27	10.4	0.28	–
CC[C@]1(NC(=O)N2Cc3ccc(NC(=O)c4cncnc4)cc3C2)C[C@H]2CN(CCc3c([nH]c4ccccc34)[C@@](C(=O)OC)(c3cc4c(cc3OC)N(C)[C@H]3[C@@](O)(C(=O)OC)[C@H](OC(C)=O)[C@]5(CC)C=CCN6CC[C@]43[C@@H]65)C2)C1 [Compound 59]	0.51	8.8	0.6	–
CC[C@]1(NC(=O)N2Cc3ccc(NC(=O)c4ccnnc4)cc3C2)C[C@H]2CN(CCc3c([nH]c4ccccc34)[C@@](C(=O)OC)(c3cc4c(cc3OC)N(C)[C@H]3[C@@](O)(C(=O)OC)[C@H](OC(C)=O)[C@]5(CC)C=CCN6CC[C@]43[C@@H]65)C2)C1 [Compound 62]	0.69	50	0.64	–

Source: patent US10975101B2, “Ultra-potent vinca alkaloids: added molecular complexity further disrupts the tublin dimer-dimer interface” (priority 2016, dated 2021)
